Data from patent US20230125749A1, “COMPOSITION CONTAINING PEPTIDE OR PEPTIDE COMPOUND AS ACTIVE INGREDIENT, AND MEDICAL USE THEREFOR” (AJOU UNIVERSITY INDUSTRY-ACADEMIC COOPERATION FOUNDATION, priority 2019, published 2023).

Test system: intraperitoneal macrophages
Assay: Fluorescence-labeled cells among intraperitoneal macrophages after oral administration of fluorescence-conjugated peptides to normal mice
Format: in vivo, mouse
Settings: measured after 48 and 72 hours, FIG. 10
Procedure: Furthermore, peptides 1, 2, and 4 were orally administered to normal mice after conjugation with each different fluorescence, and the frequency of fluorescence-labeled cells was measured among intraperitoneal macrophages after 48 and 72 hours.

LICPEKYCNKVHT [P1]
time for which the fluorescence-labeled peptide was maintained among intraperitoneal macrophages: up to 72 hours
